According to the supplement of paper PMC10307832:

Legend:
Assay in all cases: relative viability (nuclei count vs DMSO), 5 days (fraction); higher = more cells survive
[1] = compound: CCN1C(=O)C2=CC(=C(N=C2N(C1=O)C3CC3)N)C(=O)N + CS(=O)(=O)N1CCN(Cc2cc3nc(-c4cccc5[nH]ncc45)nc(N4CCOCC4)c3s2)CC1 [Pictilisib] (partner 1 µM)
Procedure, shortened: (§1)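 Dosing by pin tool came one day after lung cancer cell lines were seeded in 1536-well plates, using either one drug or a fixed anchor-drug dose plus five library-drug doses (not always all listed) in √10 steps. After 5 days, nuclei were counted on 4× images. Relative viability is treated-well nuclei count divided by vehicle-well nuclei count, and values are medians of duplicate plates.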

[2] = compound: CCN1C(=O)C2=CC(=C(N=C2N(C1=O)C3CC3)N)C(=O)N + N=C(N)NC(=N)NCCc1ccccc1 [Phenformin] (partner 250 µM)
Procedure, shortened: as §1

[3] = compound: CCN1C(=O)C2=CC(=C(N=C2N(C1=O)C3CC3)N)C(=O)N + Cc1nc(NC(=O)N2CCC[C@H]2C(N)=O)sc1-c1ccnc(C(C)(C)C(F)(F)F)c1 [Alpelisib] (partner 2 µM)
Procedure, shortened: as §1

[4] = compound: CCN1C(=O)C2=CC(=C(N=C2N(C1=O)C3CC3)N)C(=O)N + O=C(CCCCCCC(=O)Nc1ccccc1)NO [Vorinostat] (partner 1 µM)
Procedure, shortened: as §1

[5] = compound: CCN1C(=O)C2=CC(=C(N=C2N(C1=O)C3CC3)N)C(=O)N + Cc1cc(Nc2cc(N3CCN(C)CC3)nc(Sc3ccc(NC(=O)C4CC4)cc3)n2)n[nH]1 [Tozasertib] (partner 0.1 µM)
Procedure, shortened: as §1

Cell Line	relative viability ([1]; first compound 0.253 µM)	relative viability ([1]; first compound 0.8 µM)	relative viability ([1]; first compound 2.53 µM)	relative viability ([1]; first compound 8 µM)	relative viability ([2]; first compound 0.253 µM)	relative viability ([2]; first compound 0.8 µM)	relative viability ([2]; first compound 2.53 µM)	relative viability ([2]; first compound 8 µM)	relative viability ([3]; first compound 0.253 µM)	relative viability ([3]; first compound 0.8 µM)	relative viability ([3]; first compound 2.53 µM)	relative viability ([3]; first compound 8 µM)	relative viability ([4]; first compound 0.253 µM)	relative viability ([4]; first compound 0.8 µM)	relative viability ([4]; first compound 2.53 µM)	relative viability ([4]; first compound 8 µM)	relative viability ([5]; first compound 0.253 µM)	relative viability ([5]; first compound 0.8 µM)	relative viability ([5]; first compound 2.53 µM)	relative viability ([5]; first compound 8 µM)
NCI-H2085	0.418	0.397	0.444	0.42	0.737	0.666	0.752	0.684	0.96	0.945	0.924	1.04	0.767	0.764	0.747	0.782	0.85	0.726	0.867	0.613
NCI-H2087	0.785	0.788	0.878	0.857	0.439	0.466	0.443	0.398	1.09	1.07	1.12	1.08	0.634	1.23	0.911	0.676	0.258	0.249	0.214	0.266
NCI-H2126	0.509	0.511	0.507	0.474	0.553	0.512	0.522	0.506	0.759	0.734	0.785	0.734	0.846	0.803	0.765	0.797	0.86	0.798	0.801	0.828
NCI-H2170	0.297	0.326	0.295	0.335	0.42	0.444	0.418	0.445	0.908	0.789	0.734	0.809	0.881	0.791	0.869	0.78	0.752	0.788	0.692	0.632
NCI-H2228	0.393	0.368	0.353	0.4	0.405	0.372	0.331	0.395	0.622	0.669	0.709	1.16	0.933	0.572	0.676	0.679	0.205	0.189	0.233	0.162
NCI-H2347	0.475	0.711	0.566	0.782	0.373	0.424	0.547	0.418	0.963	0.987	1.02	0.89	0.634	0.462	0.623	0.639	0.666	0.61	0.572	0.482
NCI-H2405	0.456	0.464	0.424	0.479	0.379	0.388	0.381	0.395	0.909	0.79	0.767	0.723	1.21	–	1.26	1.14	0.823	0.777	0.757	0.732
NCI-H3122	0.51	0.695	0.554	0.658	0.401	0.393	0.394	0.358	0.748	0.755	0.717	0.819	0.912	0.975	0.968	0.988	0.393	0.369	0.376	0.533
